In patent publication US20250145665A1, “MACROCYCLIC PEPTIDES USEFUL AS MODULATORS OF TNF ALPHA” (Bristol-Myers Squibb Company, priority 2023, published 2025):
pIC50: −log10 of the molar value. Read-outs that look alike come from different tables or passages of the source. Starred links: 1 amine or outer side, 2 acyl side, 3 side chain; linkers in the order of their positions; H or OH if unused. Positions of bridges follow the written chain, without caps; N, C: chain ends. Non-standard residues stand in square brackets, D forms with d. Residues, ends and D or L forms follow the SMILES beside them. *: point of attachment. X52 = Cc1c(C(=O)O)cccc1C(=O)Nc1ccc(-c2ccc(C[C@H](N[*:1])C(=O)[*:2])cc2)cc1; X74 = Cn1nc(C(=O)Nc2ccc(-c3ccc(C[C@H](N[*:1])C(=O)[*:2])cc3)cc2)c2cccnc21; dArg(Nω-CH2C6H4-3-CH2Gua) = N=C(N)NCc1cccc(CNC(=N)NCCC[C@@H](N)C(=O)O)c1; Bip(4'-NH) = O=C([C@H](Cc1ccc(-c2ccc(N[*:3])cc2)cc1)N[*:1])[*:2]; dArg(ω-Bn(3-CH2OH)) = N=C(NCCC[C@@H](N)C(=O)O)NCc1cccc(CO)c1; Indazole3carbonyl(1-CH2COOH) = O=C(O)Cn1nc(C(=O)*)c2ccccc21; Bip(4'-COOH) = N[C@@H](Cc1ccc(-c2ccc(C(=O)O)cc2)cc1)C(=O)O; Bip(4'-NHAc) = CC(=O)Nc1ccc(-c2ccc(C[C@H](N)C(=O)O)cc2)cc1; Ala(morpholin-4-yl) = N[C@@H](CN1CCOCC1)C(=O)O; Benzoyl(3-OCH2COOH) = O=C(O)COc1cccc(C(=O)*)c1; Phe(3-CONH2) = NC(=O)c1cccc(C[C@H](N)C(=O)O)c1; X85 = N=C(N)c1cccc(C[C@H](N[*:1])C(=O)[*:2])c1; Bip = N[C@@H](Cc1ccc(-c2ccccc2)cc1)C(=O)O; Tiq1c(1S) = O=C(O)[C@H]1NCCc2ccccc21; Val(3-OH) = CC(C)(O)[C@H](N)C(=O)O; NMeF = CN[C@@H](Cc1ccccc1)C(=O)O; 2Pal = N[C@@H](Cc1ccccn1)C(=O)O; 2Thi = N[C@@H](Cc1cccs1)C(=O)O; Cha = N[C@@H](CC1CCCCC1)C(=O)O; Chg = N[C@H](C(=O)O)C1CCCCC1; Tle = CC(C)(C)[C@H](N)C(=O)O; Aze = O=C(O)[C@@H]1CCN1; Sar = CNCC(=O)O

Target: TNFα (Homo sapiens, UniProt P01375)
Sequence (P01375 77-233 limits assumed): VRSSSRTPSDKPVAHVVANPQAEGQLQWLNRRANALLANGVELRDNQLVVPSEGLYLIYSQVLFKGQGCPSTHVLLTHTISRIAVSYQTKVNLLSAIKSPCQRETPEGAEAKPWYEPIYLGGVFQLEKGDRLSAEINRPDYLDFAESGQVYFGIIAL
Experiment: TNF-Induced HEK-Blue Assay
Type: cell-based
[1] = HEK-Blue-CD40L cells, NF-kB-driven secreted alkaline phosphatase reporter, TNFα 0.5 ng/ml, 18 h, read-out: TNF induced HEK-Blue assay IC50 value

Row | pIC50 [1] | SMILES | pIC50
1 | 6.70 to 7.30 | CC[C@H](C)[C@@H]1NC(=O)[C@@H](CCCNC(=N)NCc2cccc(CO)c2)NC(=O)[C@H](CC(=O)O)NC(=O)[C@H](Cc2cnc[nH]2)NC(=O)CN(C)C(=O)[C@H](Cc2ccc(-c3ccc(NC(=O)c4cccc(OCC(=O)O)c4)cc3)cc2)NC(=O)[C@H](Cc2ccc(-c3ccccc3)cc2)NC(=O)[C@H](CC2CCCCC2)NC(=O)CSC[C@@H](C(=O)NCC(N)=O)NC(=O)[C@H](CC(C)C)NC(=O)[C@H](Cc2cnc[nH]2)NC(=O)[C@H](C(C)C)NC(=O)[C@@H]2CCCN2C1=O [Example 498] ({CH2CO}-[Cha][Bip][Bip(4'-NH)](Benzoyl(3-OCH2COOH))[Sar]HD[dArg(ω-Bn(3-CH2OH))]IPVHLCG-NH2; thioether N-13) | 
2 | 5.70 to 6.70 | CC(C)C[C@@H]1NC(=O)[C@H](CCCNC(=N)N)NC(=O)[C@H](C(C)C)NC(=O)CN(C)C(=O)[C@H](C(C)C)NC(=O)[C@H](CCCNC(=N)N)NC(=O)[C@H](CC(=O)O)NC(=O)[C@@H]2CCCN2C(=O)CN(C)C(=O)[C@H](Cc2ccc(-c3ccccc3)cc2)NC(=O)[C@H](Cc2ccc(-c3ccccc3)cc2)NC(=O)[C@H](Cc2ccccc2)NC(=O)CSC[C@@H](C(=O)NCC(N)=O)NC1=O [Example 16] ({CH2CO}-F[Bip][Bip][Sar]PDRV[Sar]VRLCG-NH2; thioether N-13) | 
3 | > 7.30 | CC(=O)Nc1ccc(-c2ccc(C[C@@H]3NC(=O)[C@H](Cc4ccc(-c5ccc(C(=O)O)cc5)cc4)NC(=O)[C@H](CN4CCOCC4)NC(=O)CSC[C@@H](C(=O)NCC(N)=O)NC(=O)[C@H](CC(C)C)NC(=O)[C@H](CCCNC(=N)N)NC(=O)[C@H](C(C)C)NC(=O)[C@@H]4CCN4C(=O)[C@H](C(C)C)NC(=O)[C@@H](CCCNC(=N)N)NC(=O)[C@H](CC(=O)O)NC(=O)[C@H](Cc4ccccn4)NC(=O)CN(C)C3=O)cc2)cc1 [Example 185] ({CH2CO}-[Ala(morpholin-4-yl)][Bip(4'-COOH)][Bip(4'-NHAc)][Sar][2Pal]D[dR]V[Aze]VRLCG-NH2; thioether N-13) | 
4 | > 7.30 | CC(=O)Nc1ccc(-c2ccc(C[C@@H]3NC(=O)[C@H](Cc4ccc(-c5ccc(C(=O)O)cc5)cc4)NC(=O)[C@H](CN4CCOCC4)NC(=O)CSC[C@@H](C(=O)NCC(N)=O)NC(=O)[C@H](CC(C)C)NC(=O)[C@H](Cc4cccc(C(N)=O)c4)NC(=O)[C@H](C(C)C)NC(=O)[C@@H]4CCCN4C(=O)[C@H](C(C)C)NC(=O)[C@@H](CCCNC(=N)N)NC(=O)[C@H](CC(=O)O)NC(=O)[C@H](Cc4ccc(O)cc4)NC(=O)CN(C)C3=O)cc2)cc1 [Example 457] ({CH2CO}-[Ala(morpholin-4-yl)][Bip(4'-COOH)][Bip(4'-NHAc)][Sar]YD[dR]VPV[Phe(3-CONH2)]LCG-NH2; thioether N-13) | 
5 | 6.70 to 7.30 | CC(=O)Nc1ccc(-c2ccc(C[C@@H]3NC(=O)[C@H](Cc4ccc(-c5ccccc5)cc4)NC(=O)[C@H](CC4CCCCC4)NC(=O)CSC[C@@H](C(=O)NCC(N)=O)NC(=O)[C@H](CC(C)C)NC(=O)[C@H](Cc4cccs4)NC(=O)[C@H](C(C)C)NC(=O)[C@@H]4CCCN4C(=O)[C@H](C(C)C)NC(=O)[C@@H](CCCNC(=N)N)NC(=O)[C@H](CC(=O)O)NC(=O)[C@@H]4CCCN4C(=O)CN(C)C3=O)cc2)cc1 [Example 289] ({CH2CO}-[Cha][Bip][Bip(4'-NHAc)][Sar]PD[dR]VPV[2Thi]LCG-NH2; thioether N-13) | 
6 | 5.70 to 6.70 | CC(C)C[C@@H]1NC(=O)[C@H](CCCNC(=N)N)NC(=O)[C@H](C(C)C)NC(=O)[C@@H]2CCCN2C(=O)[C@H](C(C)C)NC(=O)[C@H](CCCNC(=N)N)NC(=O)[C@H](CC(=O)O)NC(=O)[C@@H]2CCN2C(=O)CN(C)C(=O)[C@H](Cc2ccc(-c3ccccc3)cc2)NC(=O)[C@H](Cc2ccc(-c3ccccc3)cc2)NC(=O)[C@H](Cc2ccccc2)NC(=O)CSC[C@@H](C(=O)NCC(N)=O)NC1=O [Example 46] ({CH2CO}-F[Bip][Bip][Sar][Aze]DRVPVRLCG-NH2; thioether N-13) | 
7 | 6.70 to 7.30 | CC(C)C[C@@H]1NC(=O)[C@H](CCCNC(=N)N)NC(=O)[C@H](C(C)C)NC(=O)[C@@H]2CCCN2C(=O)[C@H](C(C)C)NC(=O)[C@H](CCCNC(=N)N)NC(=O)[C@H](CC(=O)O)NC(=O)[C@@H]2CCCN2C(=O)CN(C)C(=O)[C@H](Cc2ccc(-c3ccccc3)cc2)NC(=O)[C@H](Cc2ccc(-c3ccccc3)cc2)NC(=O)[C@H](C(C)(C)O)NC(=O)CSC[C@@H](C(=O)NCC(N)=O)NC1=O [Example 27] ({CH2CO}-[Val(3-OH)][Bip][Bip][Sar]PDRVPVRLCG-NH2; thioether N-13) | 
8 | 5.70 to 6.70 | CC(=O)Nc1ccc(-c2ccc(C[C@@H]3NC(=O)[C@H](Cc4ccc(-c5ccc(C(=O)O)cc5)cc4)NC(=O)[C@H](CC4CCCCC4)NC(=O)CSC[C@@H](C(=O)NCC(N)=O)NC(=O)[C@H](CC(C)C)NC(=O)[C@H](Cc4cccs4)NC(=O)[C@H](C(C)C)NC(=O)[C@@H]4CCCN4C(=O)[C@H](C(C)C)NC(=O)[C@@H](CCCNC(=N)N)NC(=O)[C@H](CC(=O)O)NC(=O)[C@@H]4CCCN4C(=O)CN(C)C3=O)cc2)cc1 [Example 245] ({CH2CO}-[Cha][Bip(4'-COOH)][Bip(4'-NHAc)][Sar]PD[dR]VPV[2Thi]LCG-NH2; thioether N-13) | 
9 |  | CC[C@H](C)[C@@H]1NC(=O)[C@@H](CCCNC(=N)N)NC(=O)[C@H](CC(=O)O)NC(=O)[C@H](Cc2cnc[nH]2)NC(=O)CN(C)C(=O)[C@H](Cc2ccc(-c3ccc(NC(=O)c4nn(CC(=O)O)c5ccccc45)cc3)cc2)NC(=O)[C@H](Cc2ccc(-c3ccc(C(=O)O)cc3)cc2)NC(=O)[C@H](CC2CCCCC2)NC(=O)CSC[C@@H](C(=O)NCC(N)=O)NC(=O)[C@H](CC(C)C)NC(=O)[C@H](Cc2cnc[nH]2)NC(=O)[C@H](C(C)C)NC(=O)[C@@H]2c3ccccc3CCN2C1=O [Example 360] ({CH2CO}-[Cha][Bip(4'-COOH)][Bip(4'-NH)](Indazole3carbonyl(1-CH2COOH))[Sar]HD[dR]I[Tiq1c(1S)]VHLCG-NH2; thioether N-13) | > 7.30
10 | 6.70 to 7.30 | CC[C@H](C)[C@@H]1NC(=O)[C@@H](CCCNC(=N)N)NC(=O)[C@H](CC(=O)O)NC(=O)[C@H](Cc2cnc[nH]2)NC(=O)CN(C)C(=O)[C@H](Cc2ccc(-c3ccc(NC(=O)c4cccc(C(=O)O)c4C)cc3)cc2)NC(=O)[C@H](Cc2ccc(-c3ccccc3)cc2)NC(=O)[C@H](CC2CCCCC2)NC(=O)CSC[C@@H](C(=O)NCC(N)=O)NC(=O)[C@H](CC(C)C)NC(=O)[C@H](Cc2cnc[nH]2)NC(=O)[C@H](C(C)C)NC(=O)[C@@H]2CCCN2C1=O [Example 447] ({CH2CO}-[Cha][Bip][X52][Sar]HD[dR]IPVHLCG-NH2; thioether N-13) | 
11 | > 7.30 | CC(C)C[C@@H]1NC(=O)[C@H](CCCNC(=N)N)NC(=O)[C@H](C2CCCCC2)NC(=O)[C@@H]2CCCN2C(=O)[C@H](C(C)C)NC(=O)[C@@H](CCCNC(=N)N)NC(=O)[C@H](CC(=O)O)NC(=O)[C@@H]2CCCN2C(=O)CN(C)C(=O)[C@H](Cc2ccc(-c3ccccc3)cc2)NC(=O)[C@H](Cc2ccc(-c3ccccc3)cc2)NC(=O)[C@H](CN2CCOCC2)NC(=O)CSC[C@@H](C(=O)NCC(N)=O)NC1=O [Example 206] ({CH2CO}-[Ala(morpholin-4-yl)][Bip][Bip][Sar]PD[dR]VP[Chg]RLCG-NH2; thioether N-13) | 
12 | > 7.30 | CC[C@H](C)[C@@H]1NC(=O)[C@@H]2CCCN2C(=O)[C@H]([C@@H](C)CC)NC(=O)[C@@H](CCCNC(=N)N)NC(=O)[C@H](CC(=O)O)NC(=O)[C@H](Cc2ccccn2)NC(=O)CN(C)C(=O)[C@H](Cc2ccc(-c3ccc(NC(C)=O)cc3)cc2)NC(=O)[C@H](Cc2ccc(-c3ccccc3)cc2)NC(=O)[C@H](C(C)(C)C)NC(=O)CSC[C@@H](C(=O)NCC(N)=O)NC(=O)[C@H](CC(C)C)NC(=O)[C@H](Cc2cccc(C(=N)N)c2)NC1=O [Example 297] ({CH2CO}-[Tle][Bip][Bip(4'-NHAc)][Sar][2Pal]D[dR]IPI[X85]LCG-NH2; thioether N-13) | 
13 | > 7.30 | CC(C)C[C@@H]1NC(=O)[C@H](Cc2ccccc2)N(C)C(=O)[C@H](C(C)C)NC(=O)[C@@H]2CCCN2C(=O)[C@H](C(C)C)NC(=O)[C@@H](CCCNC(=N)N)NC(=O)[C@H](CC(=O)O)NC(=O)[C@H](Cc2ccc(O)cc2)NC(=O)CN(C)C(=O)[C@H](Cc2ccc(-c3ccccc3)cc2)NC(=O)[C@H](Cc2ccc(-c3ccc(C(=O)O)cc3)cc2)NC(=O)[C@H](CN2CCOCC2)NC(=O)CSC[C@@H](C(=O)NCC(N)=O)NC1=O [Example 220] ({CH2CO}-[Ala(morpholin-4-yl)][Bip(4'-COOH)][Bip][Sar]YD[dR]VPV[NMeF]LCG-NH2; thioether N-13) | 
14 |  | CC(C)C[C@@H]1NC(=O)[C@H](Cc2cccc(C(N)=O)c2)NC(=O)[C@H](C(C)C)NC(=O)[C@@H]2CCCN2C(=O)[C@H](C(C)C)NC(=O)[C@@H](CCCNC(=N)NCc2cccc(CNC(=N)N)c2)NC(=O)[C@H](CC(=O)O)NC(=O)[C@H](Cc2ccc(O)cc2)NC(=O)CN(C)C(=O)[C@H](Cc2ccc(-c3ccc(NC(=O)c4nn(CC(=O)O)c5ccccc45)cc3)cc2)NC(=O)[C@H](Cc2ccc(-c3ccccc3)cc2)NC(=O)[C@H](CN2CCOCC2)NC(=O)CSC[C@@H](C(=O)NCC(N)=O)NC1=O [Example 620] ({CH2CO}-[Ala(morpholin-4-yl)][Bip][Bip(4'-NH)](Indazole3carbonyl(1-CH2COOH))[Sar]YD[dArg(Nω-CH2C6H4-3-CH2Gua)]VPV[Phe(3-CONH2)]LCG-NH2; thioether N-13) | > 7.30
15 | > 7.30 | CC(C)C[C@@H]1NC(=O)[C@H](CCCNC(=N)N)NC(=O)[C@H](C(C)C)NC(=O)[C@@H]2CCCN2C(=O)[C@H](C(C)C)NC(=O)[C@@H](CCCNC(=N)N)NC(=O)[C@H](CC(=O)O)NC(=O)[C@@H]2CCCN2C(=O)CN(C)C(=O)[C@H](Cc2ccc(-c3ccc(NC(=O)c4nn(C)c5ncccc45)cc3)cc2)NC(=O)[C@H](Cc2ccc(-c3ccccc3)cc2)NC(=O)[C@H](CN2CCOCC2)NC(=O)CSC[C@@H](C(=O)NCC(N)=O)NC1=O [Example 347] ({CH2CO}-[Ala(morpholin-4-yl)][Bip][X74][Sar]PD[dR]VPVRLCG-NH2; thioether N-13) | 
